Laboratory results from US4514330A, “Carbon-7-substituted atinomycin D analogue” (Trustees of Boston University, priority 1983, dated 1985).
In brackets after ≈: the same amount, converted by molar mass. Like-named read-outs stand apart in the source and are kept apart here.

Experiments:
DNA = test: Thermal denaturation of DNA (ΔTm), stabilization of DNA helical structure on drug binding; design: species or system calf thymus; conditions: for DNA melting profile / ΔTm character of the DNA complex: thermal denaturation, words
Method: Thermal denaturation studies were carried out according to the procedure described in J. Med. Chem., Vol. 24, p. 1052 (1981). The ΔTm values in Table II give a measure of stabilization of DNA helical structure as a consequence of drug binding.
^a ΔTm = m of DNAdrug complex minus m of DNA.
Concentraiton of drug, 1.4 × 10^-4 M; of DNA (P), 1.4 ×
10^-3 M in 0.01 M phosphate buffer (pH 7.0), 5 × 10^-3 M in
EDTA and 5% dimethyl sulfoxide.
^d Highest dose tested. These values are derived at high temperatur
(67°-75° C.) and may not always correlate with the results
of other DNA-binding studies (e.g., absorptiometric or circular dichroic).
Melting points were obtained with a Thomas-Hoover melting point apparatus at a heating rate of 2° C./min. Column chromatography was accomplished with silica gel powder (Baker No. 3405, 60-20 mesh) or acid alumina (Woelm grade 1). Limited gel-filtration work was done on Sephadex LH-20, particle size 25-100 μm (Pharmacia Fine Chemicals). Thin-layer chromatography was performed on silica gel plates (E. M. Laboratories, Inc.). Solvent systems used were (A) butanol-formic acid-H2 O (75:13:12), (B) EtOAc-acetone (3:1), and (C) Cifferri, the organic phase of the mixture EtOAc-MeOH-H2 O (20:1:20). High-performance liquid chromatography was carried out on a Varian Model 5020 gradient liquid chromatograph equipped with CD-111L chromatography data system and fitted with Varian reversed-phase C18 column with isocratic solvent systems, CH3 -CN-5 mM NH4 OAc buffer, pH 6.4 (68:32 or 62:38), pressure 80-140 atm, flow rate 1.5 mL/min, with UV-visible variable and fixed wavelength dual detectors at 254 and 466 nm. Spectra were determined on the following instruments: IR spectra were obtained with a Perkin-Elmer Model 237 Infra Cord with KBr micropellets or chloroform solutions; UV-visible spectra were obtained on a Gilford 250 spectrophotometer, which, with the addition of a base-line reference compensator (Analog Multiplexer 6064) and thermoprogrammer, auto four cell programmer and thermoelectric cell holder 2577, was used to obtain thermal denaturation curves; NMR spectra were obtained on a JOEL FQ-90-90MHZ spectrometer equipped with Fourier transform; and CD spectra were obtained on a Cary 61 spectrophotometer. All elemental analyses were within ±0.4% of the theoretical values. Actinomycin D, batch no. NCS 3053, lot L554651-0-10, was provided by Natural Products Branch, National Cancer Institute, Silver Spring, Md. Calf thymus DNA type 1 was purchased from Sigma Chemical Co.

[1] = tested on: human lymphoblastic leukemic cells (CCRF-CEM); test: In vitro growth-inhibitory activity against human lymphoblastic leukemic cells (CCRF-CEM) in log phase; format: cell-based; conditions: for IC50: Homo sapiens, final growth medium contained 1% Me2SO, log phase, read-out: ID50 (in vitro growth inhibition, CCRF-CEM)
Method: ^b Using human lymohoblastic leukemia cells in logplastic growth.
Compounds were dissolved in Me2 So medium, final growth medium

P-388 leukemia = test: In vivo antitumor activity against P-388 lymphocytic leukemia in CDF1 mice; conditions: for % ILS (percent increase in life span) / MST (median survival time) / cure (over 55 day survivors): days 1, 5, 9; for minimal effective dose: Mus musculus, P388, ip, read-out: MED (minimum effective dose, 40% increase in life span over control); for fold increase in survival time over AMD (1b) or 7-hydroxyactinomycin D (2b): optimal nontoxic dose levels
Method: Studies on in vivo activity of AMD and AMD analogues were carried out with P-388 lymphocytic leukemia in CDF1 hybrid mice. The drugs were administered either daily for 4 successive days (qd 1-4) or on days 1, 5 and 9 (q4d 1, 5, 9) beginning 1 day after tumor implantation.
^a Male CDF1 (18-23 g) mice were inoculated intraperitoneally
(ip) with 10^6 P388 cells on day 0. Drugs were administered, also ip,
in 10% dimethyl sulfoxidesaline on days 1, 5 and 9. Test solutions were
kept at 0-4° C., protected from light, and the stability and
homogeneity were checked periodically by TLC and HPLC.
^b MST = median survival time.
^c % ILS = percent increase in life span.
^d Over 55 day survivors. Average of three experiments. The
^a Drugs administed ip once daily either for 4 successive days (qd
1-4) or on days 1, 5 and 9 (q4d 1, 5 9), starting 1 day after tumor
^b MED (minimum effective dose) is the dose (milligrams/kilogram)
providing an increase in life span of 40% over control in P388

normal CDF1 male mice = test: Maximum tolerated dose (LD10) in normal, tumor-free CDF1 male mice; format: in vivo; conditions: for MTD (maximum tolerated dose, lethal for 10% of normal mice; = LD10): deaths during 21 days; for MTD dose as multiple of the MTD dose for AMD: q4d 1, 5, 9 schedule; for fold less toxic than AMD: qd 1-4 schedule
Method: ^c MTD (maximum tolerated dose) is the lethal dose
(milligrams/kilogram) for 10% normal CDF1 male mice (18-23 g);
were calculated from a plot of log dose vs. percent mortality. Average of
two to three experiments.
Biological Experiments. Determination of LD10 Values. Tumor-free CDF1 male mice weighing 18-23 g were given a broad range of doses of drugs in 10% dimethyl sulfoxide-saline on either days 1, 5 and 9 or on 4 successive days. Drugs were administered intraperitoneally (ip).
The maximum tolerated doses of AMD and analogues that caused deaths in only 10% of the tested animals in 21 days were recorded as MTD. The results are an average of two experiments in each. The MTD values obtained following schedules q4d 1, 5, 9 (three injections) and qd 1-4 (four injections) are recorded in Table IV. These doses are the same as LD10 (lethal dose of 10% of tumor-free animals in 21 days).

[2] = In vivo metabolic transformation and urinary excretion; design: species or system rat; conditions: metabolites as conjugates of 4b
Method: The therapeutic indexes of both 3b and 4b in qd 1-4 and q4d 1, 5, 9 schedules of treatment are calculated and expressed in Table IV. […] These and other unidentified polar metabolites are excreted at about two to three times the rate of AMD in rat urine. This process of in vivo metabolic transformation and fast excretion appears to play a major role in reducing the in vivo toxicity factor of 3b and 4b.

[3] = three injections ip, q4d 1, 5, 9

Structure (SMILES)	DNA melting profile / ΔTm character of the DNA complex (DNA)	IC50 [1] [µg/mL]	% ILS (percent increase in life span) (P-388 leukemia; 0.15 mg/kg ip) [%]	MST (median survival time) (P-388 leukemia; 0.15 mg/kg ip) [days]	cure (over 55 day survivors) (P-388 leukemia; 0.15 mg/kg ip)	% ILS (percent increase in life span) (P-388 leukemia; 0.30 mg/kg ip) [%]	MST (median survival time) (P-388 leukemia; 0.30 mg/kg ip) [days]	cure (over 55 day survivors) (P-388 leukemia; 0.30 mg/kg ip)	% ILS (percent increase in life span) (P-388 leukemia; 0.60 mg/kg ip) [%]	MST (median survival time) (P-388 leukemia; 0.60 mg/kg ip) [days]	cure (over 55 day survivors) (P-388 leukemia; 0.60 mg/kg ip)	% ILS (percent increase in life span) (P-388 leukemia; 1.20 mg/kg ip) [%]	MST (median survival time) (P-388 leukemia; 1.20 mg/kg ip) [days]	cure (over 55 day survivors) (P-388 leukemia; 1.20 mg/kg ip)	% ILS (percent increase in life span) (P-388 leukemia; 1.80 mg/kg ip) [%]	MST (median survival time) (P-388 leukemia; 1.80 mg/kg ip) [days]	cure (over 55 day survivors) (P-388 leukemia; 1.80 mg/kg ip)	minimal effective dose (P-388 leukemia; four injections ip, qd 1-4) [mg/kg]	minimal effective dose (P-388 leukemia; [3]) [mg/kg]	therapeutic index: MTD/MED (P-388 leukemia; four injections ip, qd 1-4)	further results
Cc1c2oc3c(C)c(OCC4CO4)cc(C(=O)N[C@@H]4C(=O)N[C@H](C(C)C)C(=O)N5CCC[C@H]5C(=O)N(C)CC(=O)N(C)[C@@H](C(C)C)C(=O)O[C@@H]4C)c3nc-2c(C(=O)N[C@@H]2C(=O)N[C@H](C(C)C)C(=O)N3CCC[C@H]3C(=O)N(C)CC(=O)N(C)[C@@H](C(C)C)C(=O)O[C@@H]2C)c(N)c1=O (stereo partly shown) [Compound 3b, 7-(2,3-Epoxypropoxy)actinomycin D]	very broad	0.009 (≈ 0.00678 µM)	164	29	0/7	263	40	1/7	255	41	1/7	291	43	3/7	300	44	3/7	0.0375	0.05	43	times more cytotoxic than AMD ([1]; vs AMD): about sevenfold; % ILS (percent increase in life span) (P-388 leukemia; 2.40 mg/kg ip): 136%; MST (median survival time) (P-388 leukemia; 2.40 mg/kg ip): 26 days; cure (over 55 day survivors) (P-388 leukemia; 2.40 mg/kg ip): 2/7; breadth of dose-response curve (P-388 leukemia; ip, q4d 1, 5, 9): very broad; overall activity relative to AMD (P-388 leukemia; ip, q4d 1, 5, 9): superior to AMD; cure (tumor free), animals out of seven treated (P-388 leukemia; optimal dose ranges of 1.2 and 1.8 mg/kg, ip, q4d 1, 5, 9): three; fold increase in survival time over AMD (1b) or 7-hydroxyactinomycin D (2b) (P-388 leukemia; ip, q4d 1, 5, 9): ~2.5 fold; therapeutic index: MTD/MED (P-388 leukemia; [3]): 72; long-term survivors (P-388 leukemia; throughout the dose range, ip, q4d 1, 5, 9): long-term survivors throughout this dose range; MTD (maximum tolerated dose, lethal for 10% of normal mice; = LD10) (normal CDF1 male mice; four injections ip, qd 1-4): 1.6 milligrams/kilogram; MTD dose as multiple of the MTD dose for AMD (normal CDF1 male mice): 14 fold; fold less toxic than AMD (normal CDF1 male mice): 11 fold; MTD (maximum tolerated dose, lethal for 10% of normal mice; = LD10) (normal CDF1 male mice; [3]): 3.6 milligrams/kilogram; in vivo metabolic transformation [2]: transformed in vivo to highly polar metabolites
Cc1c2oc3c(C)c(OCC(O)CO)cc(C(=O)N[C@@H]4C(=O)N[C@H](C(C)C)C(=O)N5CCC[C@H]5C(=O)N(C)CC(=O)N(C)[C@@H](C(C)C)C(=O)O[C@@H]4C)c3nc-2c(C(=O)N[C@@H]2C(=O)N[C@H](C(C)C)C(=O)N3CCC[C@H]3C(=O)N(C)CC(=O)N(C)[C@@H](C(C)C)C(=O)O[C@@H]2C)c(N)c1=O (stereo partly shown) [Compound 4b, 7-(2,3-Dihydroxypropoxy) actinomycin D]	sharp and smooth	0.085 (≈ 0.0632 µM)	45	16	0/7	82	20	2/7	136	25	1/7	191	32	0/7	36	15	0/7	0.125	0.15	6	Tm (ΔTm = Tm of DNA-drug complex minus Tm of DNA) (DNA; drug 1.4 × 10^-4 M, DNA (P) 1.4 × 10^-3 M, 0.01 M phosphate buffer pH 7.0, EDTA, 5% dimethyl sulfoxide): 5.1 ± 0.15 °C; times less cytotoxic than AMD ([1]; vs AMD): about 1.5 times; fold increase in survival time over AMD (1b) or 7-hydroxyactinomycin D (2b) (P-388 leukemia; ip, q4d 1, 5, 9): ~1.5 fold; therapeutic index: MTD/MED (P-388 leukemia; [3]): 12; MTD (maximum tolerated dose, lethal for 10% of normal mice; = LD10) (normal CDF1 male mice; four injections ip, qd 1-4): 1.4 milligrams/kilogram; MTD dose as multiple of the MTD dose for AMD (normal CDF1 male mice): 7 fold; fold less toxic than AMD (normal CDF1 male mice): 9 fold; MTD (maximum tolerated dose, lethal for 10% of normal mice; = LD10) (normal CDF1 male mice; [3]): 1.8 milligrams/kilogram; in vivo metabolic transformation [2]: transformed in vivo to highly polar metabolites
